What was measured:
[1] = target: T1, full-length recombinant human NEK7 (Homo sapiens, UniProt Q8TDX7); assay: NEK7 enzymatic assay; assay type: biochemical; conditions: recombinant human NEK7, casein substrate, radiolabelled ATP
T1 construct: full-length recombinant human NEK7; GST (N); purchased SignalChem NO9-10G; host or cells: Sf9 insect cells (baculovirus)
Method in brief: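 Full-length GST-tagged human NEK7 from Sf9 cells (assay concentration 70 nM) was used with casein (assay concentration 20 μM) in Hepes pH 7.5 buffer, 1% DMSO, and compound (3-fold dilutions, 10 μM to 0.5 nM) was preincubated 20 min at room temperature. Radiolabelled ATP was added for 2 h, phosphorylation was read on P81 paper, and IC50 was fitted from % activity remaining versus vehicle.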

IL-1β release = IL-1β release assay (THP-1 cells, PMA, LPS, nigericin); assay type: cell-based; conditions: Homo sapiens, LPS 250 ng/mL, nigericin 20 μM, cleaved IL-1β in media
Method: Approximately 1.5 million THP-1 cells were plated in each well of a 6-well TC plate and incubated with 40 nM PMA in RPMI (10% FBS, 1% Penstrep) for 24 hours. The media was then removed and cells were rested in RPMI (10% FBS, 1% Penstrep) for 24 hours after which time the media was removed and cells were pre-treated for 2 hours with various concentrations of compounds of interest (typically serial 3-fold dilution in RPMI+5% FBS, concentrations ranging from 1 μM to 0.5 nM) in RPMI (5% FBS). The media was again removed and cells were incubated with 250 ng/mL LPS and compounds of interest (concentrations as above) in RMPI (5% FBS) for 2 hours. The media was removed for a last time and cells were incubated with 20 μM nigericin and compounds of interest (concentrations as above) in Opti-MEM for 30 minutes. Cell media was then collected and the amount of cleaved IL-1β was determined using a JESS instrument (Protein Simple) and standard protocols. Cleaved Il-1β antibody was obtained from Cell Signaling (catalogue #83186S) and was used at 1:20 dilution in antibody diluent 2. Protein Simple 1× anti-Rabbit HRP secondary antibody was used along with Protein Simple luminol and peroxide for chemiluminescent detection. Primary antibody incubation time was increased from 30 minutes to 60 minutes.

T1 sequence (Q8TDX7 whole entry): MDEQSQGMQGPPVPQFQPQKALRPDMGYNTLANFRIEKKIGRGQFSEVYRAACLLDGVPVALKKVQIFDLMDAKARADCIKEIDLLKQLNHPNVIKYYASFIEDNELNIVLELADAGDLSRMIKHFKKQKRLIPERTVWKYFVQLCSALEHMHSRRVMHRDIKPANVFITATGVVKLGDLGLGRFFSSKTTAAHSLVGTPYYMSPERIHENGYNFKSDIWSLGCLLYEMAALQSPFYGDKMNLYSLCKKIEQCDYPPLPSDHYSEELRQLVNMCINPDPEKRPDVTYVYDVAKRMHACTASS

IC50 [1] | IC50 (IL-1β release) | Structure (SMILES)
< 100 nM | < 50 nM | COCCn1cc(-c2ccc(NC(=O)Nc3ccc(CN4CCN(C)CC4)c(C(F)(F)F)c3)c(F)c2)c2c(N)ncnc21 [Example I-81, 1-(4-(4-amino-7-(2-methoxyethyl)-7H-pyrrolo[2,3-d]pyrimidin-5-yl)-2-fluorophenyl)-3-(4-((4-methylpiperazin-1-yl)methyl)-3-(trifluoromethyl)phenyl)urea]
< 100 nM | 50 to 250 nM | CN1CCN(Cc2ccc(NC(=O)Nc3ccc(-c4nn(CCO)c5ncnc(N)c45)cc3F)cc2C(F)(F)F)CC1 [Example I-76, 1-(4-(4-amino-1-(2-hydroxyethyl)-1H-pyrazolo[3,4-d]pyrimidin-3-yl)-2-fluorophenyl)-3-(4-((4-methylpiperazin-1-yl)methyl)-3-(trifluoromethyl)phenyl)urea]

Further lines, the compound ahead of its results:

Structure (SMILES) | IC50 [1] | IC50 (IL-1β release)
CN1CCN(Cc2ccc(NC(=O)Nc3ccc(-c4cn(C5CC5)c5ncnc(N)c45)cc3F)cc2C2CC2)CC1 [Example I-40, 1-(4-(4-amino-7-cyclopropyl-7H-pyrrolo[2,3-d]pyrimidin-5-yl)-2-fluorophenyl)-3-(3-cyclopropyl-4-((4-methylpiperazin-1-yl)methyl)phenyl)urea] | 100 to 500 nM | 250 to 1000 nM
CC(c1ccc(NC(=O)Nc2ccc(-c3cn(C4CC4)c4ncnc(N)c34)cc2F)cc1C(F)(F)F)N1CCN(C)CC1 (stereo not shown) [Example I-6, 1-(4-(4-amino-7-cyclopropyl-7H-pyrrolo[2,3-d]pyrimidin-5-yl)-2-fluorophenyl)-3-(4-(1-(4-methylpiperazin-1-yl)ethyl)-3-(trifluoromethyl)phenyl)urea] | > 2000 nM | > 1000 nM
CN1CCN(Cc2ccc(NC(=O)Nc3ccc(-c4cn(CC(C)(C)O)c5ncnc(N)c45)cc3F)cc2C(F)(F)F)CC1 [Example I-15, 1-(4-(4-amino-7-(2-hydroxy-2-methylpropyl)-7H-pyrrolo[2,3-d]pyrimidin-5-yl)-2-fluorophenyl)-3-(4-((4-methylpiperazin-1-yl)methyl)-3-(trifluoromethyl)phenyl)urea] | < 100 nM | < 50 nM
